Results: PubChem BioAssay AID2060893 (Molecular Pharmacology Branch, DTP, NCI, 2025)
pIC50: −log10 of the molar value.

Tested on: K86415-001-R-J1-PDC complex spheroids, viability
Test: Anticancer human tumor K86415-001-R-J1-PDC patient-derived lung adenocarcinoma cell line growth inhibition [RAS]
Settings: for pIC50: curve of first compound; for viability, T/C: stronger effect = lower value
Summary of the method: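 Agents were tested in combination matrices in half-log decrements from a top concentration at or near clinical Cmax (10 microM if undetermined). Targets were multi-cell spheroids of tumour lines plus HUVEC and MSC stromal cells.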
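Also: spheroids exposed to agents for seven days before readout.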

**Q.** What does the source list for `Nc1ccn(C2OC(CO)C(O)C2(F)F)c(=O)n1` (configuration not stated) + C#Cc1c(F)ccc2cc(O)cc(-c3ncc4c(N5CC6CCC(C5)N6)nc(OCC56CCCN5CC(F)C6)nc4c3F)c12?
**A.** pIC50 (second compound 0.0316 µM): 7.08; pIC50 (second compound 0.1 µM): 7.03; pIC50 (second compound 0.316 µM): 7.15; pIC50 (second compound 1 µM): 7.34; pIC50 (second compound 3.16 µM): > 8.50; pIC50 (second compound 10 µM): > 8.50; viability, T/C (second compound 0.0316 µM, first compound 0.00316 µM): 92.8%; viability, T/C (second compound 0.0316 µM, first compound 0.01 µM): 95%; viability, T/C (second compound 0.0316 µM, first compound 0.0316 µM): 70%; viability, T/C (second compound 0.0316 µM, first compound 0.1 µM): 48.2%; viability, T/C (second compound 0.0316 µM, first compound 0.316 µM): 24.9%; viability, T/C (second compound 0.0316 µM, first compound 1 µM): 21.6%; viability, T/C (second compound 0.1 µM, first compound 0.00316 µM): 92.6%; viability, T/C (second compound 0.1 µM, first compound 0.01 µM): 96.6%; viability, T/C (second compound 0.1 µM, first compound 0.0316 µM): 70.8%; viability, T/C (second compound 0.1 µM, first compound 0.1 µM): 50.7%; viability, T/C (second compound 0.1 µM, first compound 0.316 µM): 26.6%; viability, T/C (second compound 0.1 µM, first compound 1 µM): 19.6%; viability, T/C (second compound 0.316 µM, first compound 0.00316 µM): 90%; viability, T/C (second compound 0.316 µM, first compound 0.01 µM): 83.3%; viability, T/C (second compound 0.316 µM, first compound 0.0316 µM): 60.3%; viability, T/C (second compound 0.316 µM, first compound 0.1 µM): 48.1%; viability, T/C (second compound 0.316 µM, first compound 0.316 µM): 23.8%; viability, T/C (second compound 0.316 µM, first compound 1 µM): 19.5%; viability, T/C (second compound 1 µM, first compound 0.00316 µM): 79.1%; viability, T/C (second compound 1 µM, first compound 0.01 µM): 69.5%; viability, T/C (second compound 1 µM, first compound 0.0316 µM): 54%; viability, T/C (second compound 1 µM, first compound 0.1 µM): 40.9%; viability, T/C (second compound 1 µM, first compound 0.316 µM): 22.7%; viability, T/C (second compound 1 µM, first compound 1 µM): 15.7%; viability, T/C (second compound 3.16 µM, first compound 0.00316 µM): 41.3%; viability, T/C (second compound 3.16 µM, first compound 0.01 µM): 35.4%; viability, T/C (second compound 3.16 µM, first compound 0.0316 µM): 29.7%; viability, T/C (second compound 3.16 µM, first compound 0.1 µM): 28.9%; viability, T/C (second compound 3.16 µM, first compound 0.316 µM): 23.6%; viability, T/C (second compound 3.16 µM, first compound 1 µM): 21.2%; viability, T/C (second compound 10 µM, first compound 0.00316 µM): 17.4%; viability, T/C (second compound 10 µM, first compound 0.01 µM): 17%; viability, T/C (second compound 10 µM, first compound 0.0316 µM): 16.8%; viability, T/C (second compound 10 µM, first compound 0.1 µM): 13.6%; viability, T/C (second compound 10 µM, first compound 0.316 µM): 15.5%; viability, T/C (second compound 10 µM, first compound 1 µM): 14.5%
